Data taken from the supplement of paper PMC11451515.

System: SEM cells
Assay: cell viability relative to DMSO control; higher = less cytotoxic
Conditions: 48 h
Outline: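 In 1536-well plates, 5 μl of leukemia cells were seeded per well: 500 cells/well for NOMO1 or SEM and 1000 cells/well for P12-Ichikawa. Each line had first been adapted for at least four passages in each medium. Library compounds in DMSO were pin-dosed at 11 threefold concentrations between 47 μM and 0.79 nM, and CellTiter-Glo One luminescence was read after 48 h at 37°C. Viability is a per-plate percentage relative to DMSO wells, with cell-free wells as background.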

[1] = HPLM + 10% dialyzed FBS, 0.000781 µM
[2] = HPLM + 10% dialyzed FBS, 0.00234 µM
[3] = HPLM + 10% dialyzed FBS, 0.00702 µM
[4] = HPLM + 10% dialyzed FBS, 0.0211 µM
[5] = HPLM + 10% dialyzed FBS, 0.0632 µM
[6] = HPLM + 10% dialyzed FBS, 0.19 µM
[7] = HPLM + 10% dialyzed FBS, 0.569 µM
[8] = HPLM + 10% dialyzed FBS, 1.71 µM
[9] = HPLM + 10% dialyzed FBS, 5.12 µM
[10] = HPLM + 10% dialyzed FBS, 15.4 µM
[11] = HPLM + 10% dialyzed FBS, 46.1 µM
[12] = RPMI 5 mM glucose + 10% FBS, 0.000781 µM
[13] = RPMI 5 mM glucose + 10% FBS, 0.00234 µM
[14] = RPMI 5 mM glucose + 10% FBS, 0.00702 µM
[15] = RPMI 5 mM glucose + 10% FBS, 0.0211 µM
[16] = RPMI 5 mM glucose + 10% FBS, 0.0632 µM
[17] = RPMI 5 mM glucose + 10% FBS, 0.19 µM
[18] = RPMI 5 mM glucose + 10% FBS, 0.569 µM
[19] = RPMI 5 mM glucose + 10% FBS, 1.71 µM
[20] = RPMI 5 mM glucose + 10% FBS, 5.12 µM
[21] = RPMI 5 mM glucose + 10% FBS, 15.4 µM
[22] = RPMI 5 mM glucose + 10% FBS, 46.1 µM
[23] = RPMI 5 mM glucose + 10% dialyzed FBS, 0.000781 µM
[24] = RPMI 5 mM glucose + 10% dialyzed FBS, 0.00234 µM
[25] = RPMI 5 mM glucose + 10% dialyzed FBS, 0.00702 µM
[26] = RPMI 5 mM glucose + 10% dialyzed FBS, 0.0211 µM
[27] = RPMI 5 mM glucose + 10% dialyzed FBS, 0.0632 µM
[28] = RPMI 5 mM glucose + 10% dialyzed FBS, 0.19 µM
[29] = RPMI 5 mM glucose + 10% dialyzed FBS, 0.569 µM
[30] = RPMI 5 mM glucose + 10% dialyzed FBS, 1.71 µM
[31] = RPMI 5 mM glucose + 10% dialyzed FBS, 5.12 µM
[32] = RPMI 5 mM glucose + 10% dialyzed FBS, 15.4 µM
[33] = RPMI 5 mM glucose + 10% dialyzed FBS, 46.1 µM

Row | SMILES | cell viability [1] | cell viability [2] | cell viability [3] | cell viability [4] | cell viability [5] | cell viability [6] | cell viability [7] | cell viability [8] | cell viability [9] | cell viability [10] | cell viability [11] | cell viability [12] | cell viability [13] | cell viability [14] | cell viability [15] | cell viability [16] | cell viability [17] | cell viability [18] | cell viability [19] | cell viability [20] | cell viability [21] | cell viability [22] | cell viability [23] | cell viability [24] | cell viability [25] | cell viability [26] | cell viability [27] | cell viability [28] | cell viability [29] | cell viability [30] | cell viability [31] | cell viability [32] | cell viability [33]
1 | CN1\N=N/C2=C(N=C[N]2C1=O)C(N)=O | 112% | 114% | 132% | 111% | 121% | 88.2% | 60.9% | 57.7% | 51.2% | 38.7% | 25.3% | 85.8% | 102% | 106% | 86.2% | 88.5% | 67.7% | 47.6% | 50.6% | 41.9% | 28.4% | 24.1% | 105% | 115% | 139% | 116% | 113% | 78.7% | 58.7% | 37.4% | 31.9% | 28.9% | 20.5%
2 | COc1cccc(Nc2c(C(N)=O)cnc3c(C)cc([S+](=O)([O-])c4cccc(C(=O)N(C)C)c4)cc23)c1 | 119% | 113% | 134% | 130% | 114% | 128% | 144% | 126% | 128% | 134% | 126% | 124% | 123% | 123% | 136% | 141% | 137% | 142% | 134% | 138% | 137% | 119% | 123% | 130% | 119% | 129% | 150% | 142% | 158% | 146% | 135% | 128% | 118%
3 | O=[S+]([O-])(/N=C/c1c(O)ccc2ccccc12)c1cccs1 | 97% | 114% | 101% | 109% | 110% | 110% | 112% | 66.8% | 104% | 88.3% | 81.9% | 113% | 116% | 108% | 106% | 113% | 120% | 102% | 74.3% | 93.3% | 94.5% | 68.5% | 98.7% | 136% | 109% | 112% | 131% | 118% | 115% | 79.5% | 98.2% | 91.1% | 98.7%
4 | Clc1ccccc1C(c1ccccc1)(c1ccccc1)n1cccn1 | 104% | 121% | 119% | 123% | 113% | 130% | 118% | 124% | 126% | 107% | 121% |  |  |  |  |  |  |  |  |  |  |  | 124% | 129% | 124% | 130% | 138% | 121% | 124% | 122% | 137% | 122% | 144%
